Results: ChEMBL document CHEMBL4270590, “Azulene-based compounds for targeting orexin receptors” (Eur J Med Chem, 2018)
The source made the active and inactive calls. No cut-off for these calls is given here.

Key:
[1] = molecular target: T1, Orexin receptor type 2 (Homo sapiens) (UniProt O43614); experiment: Agonist activity at human OX2 receptor expressed in CHOK1 cells assessed as increase in calcium accumulation at 10 uM incubated for 30 mins measured for 150 secs by calcium-4 dye based FLIPR assay relative to orexin-A; assay type: functional, cell-based
T1 sequence (whole entry): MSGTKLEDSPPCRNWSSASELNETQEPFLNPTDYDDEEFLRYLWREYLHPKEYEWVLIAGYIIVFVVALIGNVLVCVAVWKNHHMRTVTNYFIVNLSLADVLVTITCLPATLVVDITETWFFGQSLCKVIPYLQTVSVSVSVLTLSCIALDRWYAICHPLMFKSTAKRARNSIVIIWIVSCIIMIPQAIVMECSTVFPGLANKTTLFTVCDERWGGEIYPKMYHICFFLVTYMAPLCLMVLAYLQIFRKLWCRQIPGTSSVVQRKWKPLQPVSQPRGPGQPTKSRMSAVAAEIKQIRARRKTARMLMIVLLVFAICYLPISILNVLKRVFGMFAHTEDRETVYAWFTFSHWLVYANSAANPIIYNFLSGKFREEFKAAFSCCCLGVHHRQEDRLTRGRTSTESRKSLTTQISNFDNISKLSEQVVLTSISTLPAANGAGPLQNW

[2] = molecular target: T2, Orexin/Hypocretin receptor type 1 (Homo sapiens) (UniProt O43613); experiment: Allosteric agonist activity at human OX1 receptor expressed in CHOK1 cells assessed as potentiation of orexin-A induced calcium accumulation at 10 uM preincubated for 30 mins followed by orexin-A addition and measured for 150 secs by calcium-4 dye based FLIPR assay relative to control; assay type: functional, cell-based
T2 sequence (whole entry): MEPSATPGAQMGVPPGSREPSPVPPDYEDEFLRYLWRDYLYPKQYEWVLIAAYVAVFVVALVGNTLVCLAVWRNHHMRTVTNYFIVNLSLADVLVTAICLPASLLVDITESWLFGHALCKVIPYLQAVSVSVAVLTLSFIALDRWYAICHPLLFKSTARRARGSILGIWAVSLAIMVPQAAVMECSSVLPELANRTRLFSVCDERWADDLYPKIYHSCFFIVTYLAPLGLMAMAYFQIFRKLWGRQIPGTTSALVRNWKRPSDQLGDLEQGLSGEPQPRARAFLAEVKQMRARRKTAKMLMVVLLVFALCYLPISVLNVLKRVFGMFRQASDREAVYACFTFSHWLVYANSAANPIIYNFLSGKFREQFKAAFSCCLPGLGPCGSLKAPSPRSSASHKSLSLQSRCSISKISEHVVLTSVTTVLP

[3] = tested on: CHO-K1; experiment: Effect on ATP-induced intracellular calcium accumulation in CHOK1 cells expressing human OXR at 10 uM incubated for 30 mins and measured for 150 secs by calcium-4 dye based FLIPR assay; assay type: functional, cell-based; conditions: Cricetulus griseus
[4] = molecular target: T1, Orexin receptor type 2 (Homo sapiens); experiment: Allosteric agonist activity at human OX2 receptor expressed in CHOK1 cells assessed as potentiation of orexin-A induced calcium accumulation at 10 uM preincubated for 30 mins followed by orexin-A addition and measured for 150 secs by calcium-4 dye based FLIPR assay relative to control; assay type: functional, cell-based
[5] = molecular target: T2, Orexin/Hypocretin receptor type 1 (Homo sapiens); experiment: Agonist activity at human OX1 receptor expressed in CHOK1 cells assessed as increase in calcium accumulation at 10 uM incubated for 30 mins measured for 150 secs by calcium-4 dye based FLIPR assay relative to orexin-A; assay type: functional, cell-based
[6] = molecular target: T2, Orexin/Hypocretin receptor type 1 (Homo sapiens); experiment: Allosteric agonist activity at human OX1 receptor expressed in CHOK1 cells assessed as potentiation of orexin-A induced calcium accumulation preincubated for 30 mins followed by orexin-A addition and measured for 150 secs by calcium-4 dye based FLIPR assay; assay type: functional, cell-based
[7] = Solubility of the compound in water; assay type: physicochemical; conditions: buffer
[8] = molecular target: T1, Orexin receptor type 2 (Homo sapiens); experiment: Allosteric agonist activity at human OX2 receptor expressed in CHOK1 cells assessed as potentiation of orexin-A induced calcium accumulation preincubated for 30 mins followed by orexin-A addition and measured for 150 secs by calcium-4 dye based FLIPR assay; assay type: functional, cell-based
[9] = molecular target: T1, Orexin receptor type 2 (Homo sapiens); experiment: Displacement of [125I]-orexin-A from human OX2 receptor expressed in CHOK1 cells at 10 uM incubated for 10 mins and measured after 90 mins by liquid scintillation counting method relative to control; assay type: cell-based
[10] = molecular target: T1, Orexin receptor type 2 (Homo sapiens); experiment: Agonist activity at human OX2 receptor expressed in CHOK1 cells assessed as increase in calcium accumulation at 10 uM incubated for 30 mins measured for 150 secs in presence of OX2R antagonist TCS-1102 by calcium-4 dye based FLIPR assay; assay type: functional, cell-based
[11] = molecular target: T2, Orexin/Hypocretin receptor type 1 (Homo sapiens); experiment: Agonist activity at human OX1 receptor expressed in CHOK1 cells assessed as increase in calcium accumulation at 10 uM incubated for 30 mins measured for 150 secs in presence of OX1R antagonist SB-334867 by calcium-4 dye based FLIPR assay; assay type: functional, cell-based
[12] = molecular target: T2, Orexin/Hypocretin receptor type 1 (Homo sapiens); experiment: Displacement of [125I]-orexin-A from human OX1 receptor expressed in CHOK1 cells at 10 uM incubated for 10 mins and measured after 90 mins by liquid scintillation counting method relative to control; assay type: cell-based
[13] = molecular target: T3, Orexin/Hypocretin receptor type 1 (Homo sapiens, UniProt O43613); experiment: Antagonist activity at human OX1 receptor expressed in CHOK1 cells assessed as inhibition of orexin-A-induced calcium accumulation preincubated for 30 mins followed by orexin-A addition measured for 150 secs by calcium-4 dye based FLIPR assay; assay type: functional, cell-based; conditions: read-out: Ki(app)
T3 sequence (O43613 whole entry): T2 sequence (whole entry)

[14] = molecular target: T4, Orexin receptor type 2 (Homo sapiens, UniProt O43614); experiment: Antagonist activity at human OX2 receptor expressed in CHOK1 cells assessed as inhibition of orexin-A-induced calcium accumulation preincubated for 30 mins followed by orexin-A addition measured for 150 secs by calcium-4 dye based FLIPR assay; assay type: functional, cell-based; conditions: read-out: Ki(app)
T4 sequence (O43614 whole entry): T1 sequence (whole entry)

[15] = Colloidal aggregating behavior of the compound at 1 to 30 uM by nephelometric method; assay type: physicochemical

SMILES | Emax [1] | fold change (FC) [2] | Activity [3] | fold change (FC) [4] | Emax [5] | inhibition [9] | inhibition [12] | other results
COC(=O)Cc1ccc2c(C(=O)c3ccccc3)cc(C(=O)c3ccccc3)c-2cc1 | 0.05% | 1.68 | inactive | 1.06 | 0.28% |  |  | 
COC(=O)c1ccc2c(C(=O)c3ccccc3)cc(C(=O)c3ccccc3)c-2cc1 | -1.51% | 1.97 | inactive | 0.88 | -0.56% |  |  | Activity [6]: Dose-dependent effect; solubility [7]: Insoluble; Activity [8]: Dose-dependent effect
COC(=O)c1ccc2c(I)cc(C(=O)c3ccccc3)c-2cc1 | -0.25% | 1.99 | inactive | 1.02 | 1.17% | -5.4% |  | Activity [6]: Dose-dependent effect; solubility [7]: Insoluble; Activity [8]: Dose-dependent effect
COC(=O)Cc1ccc2ccc(C(=O)c3ccccc3)c-2cc1 | 11% | 1.86 | inactive | 0.97 | 5.01% | -4.3% |  | Activity [10]: inactive; Activity [11]: inactive
COC(=O)c1cccc2c(C(=O)c3ccccc3)cc(C(=O)c3ccc(C(Cl)(Cl)Cl)cc3)c-2c1 | -0.14% |  |  |  | 0.69% | 27% | 10.4% | 
COC(=O)c1ccc2c(C=O)cc(-c3ccccc3)c-2cc1 | -0.27% |  |  |  | 0.8% | 1.8% | 8.5% | 
O=C(Oc1ccc2ccc(Cl)ccc1-2)c1cccnc1 | -2.65% |  |  |  | 0.6% | 32.3% | -2.4% | 
COC(=O)c1ccc2ccc(C(=O)c3ccccc3)c-2cc1 | 4.92% | 1.64 | inactive | 0.79 | 4.15% | 28.9% | 7.2% | 
O=C(Oc1ccc2ccc(Cl)ccc1-2)c1cccs1 | -2.7% |  |  |  | 0.91% | 33.2% | 9.8% | 
COC(=O)c1cc(CN2CCOCC2)c2ccc(Cl)ccc1-2 | -0.98% |  |  |  | 0.42% | 46.7% | 24.5% | Ki [13]: 5.4 to 7.6 µM; Ki [14]: 4.3 to 8.6 µM; Activity [15]: Not Active
CC(C)(C)OC(=O)NCC(=O)Oc1ccc2ccc(Cl)ccc1-2 | -1.01% |  |  |  | 1.62% | 36% | -4.5% | 
CCOc1ccc(-c2cc(C(=O)c3ccccc3)c3ccc(C(=O)OC)ccc2-3)cc1 | -0.24% |  |  |  | 1.49% | 19.1% | 8.4% | 
O=C(O)c1ccc2ccc(C(=O)c3ccc(C(F)(F)F)cc3)c-2cc1 | 2.96% | 1.53 | inactive | 0.9 | 1.09% | 1% |  | 
COC(=O)c1ccc2ccc(C(=O)c3ccc(C(F)(F)F)cc3)c-2cc1 | 12.4% | 1.59 | inactive | 0.86 | 6.13% |  |  | Activity [10]: inactive; Activity [11]: inactive
O=Cc1cc(-c2ccccc2)c2ccc(C(=O)O)ccc1-2 | -0.21% |  |  |  | 0.8% | 21.5% | 16.2% | 
O=C(O)c1ccc2ccc(C(=O)c3ccccc3)c-2cc1 | 2.29% | 1.52 | inactive | 0.98 | 2.16% | 32.9% | 11% | 

SMILES | Emax [1] | fold change (FC) [2] | Activity [3] | fold change (FC) [4] | Emax [5] | inhibition [9] | inhibition [12] | other results
NC(=O)c1ccc2c(C=O)cc(-c3ccccc3)c-2cc1 | 1.71% |  |  |  | 0.64% | 16.7% | 6.1% | 
O=C(O)c1cccc2c(C(=O)c3ccccc3)cc(C(=O)c3ccc(C(F)(F)F)cc3)c-2c1 | -3.18% |  |  |  | -1.38% | 26.4% | 18.3% | 
O=C(OCc1ccccc1)Oc1ccc2ccc(Cl)ccc1-2 | -2.71% |  |  |  | 0.46% | 35.6% | 18.2% | 
O=C(Oc1ccc2ccc(Cl)ccc1-2)c1ccccc1 | -3.3% |  |  |  | 0.08% | 34.3% | 0.1% | 
CCOc1ccc(-c2cc(C(=O)c3ccccc3)c3ccc(C(=O)O)ccc2-3)cc1 | -0.99% | 1.01 | inactive | 0.76 | -0.17% |  |  | Ki [13]: 3.1 to 7.5 µM; Ki [14]: 3.2 to 4.9 µM; Activity [15]: Not Active
COC(=O)CCC(=O)Oc1ccc2ccc(Cl)ccc1-2 | -2.13% |  |  |  | 0.73% | 24.3% | 8% | 
O=Cc1ccc2ccc(C(=O)O)ccc1-2 | 3.47% |  |  |  | 1.75% | 44.1% | 37.8% | 
Cc1ccc2ccc(C(=O)c3ccc(C(F)(F)F)cc3)c-2cc1 | -0.44% |  |  |  | 0.61% | 31% | 38.3% | 
COC(=O)c1cccc2c(C(=O)c3ccccc3)cc(C(=O)c3ccc(C(F)(F)F)cc3)c-2c1 | -0.14% |  |  |  | 0.69% | 27% | 10.4% | 
O=C(O)c1ccc2c(C(=O)c3ccccc3)cc(C(=O)c3ccccc3)c-2cc1 | -2.09% | 1.42 | inactive | 0.75 | -1.39% | 27% |  | 
COC(=O)c1cc(C=O)c2ccc(/C=C/c3cnc[nH]3)ccc1-2 | 0.4% |  |  |  | 2.35% | 39.9% | 23% | 
COC(=O)c1ccc2ccc(C=O)c-2cc1 | 2.26% |  |  |  | 3.06% | 37.2% | 25% | 
O=C(O)Cc1ccc2ccc(C(=O)c3ccc(C(F)(F)F)cc3)c-2cc1 | -1.06% | 1.5 | inactive | 0.98 | 0.22% | 11.2% | 8.6% | 
NC(=O)c1ccc2ccc(C(=O)c3ccccc3)c-2cc1 | 1.32% |  |  |  | 0.42% | 18% | 13.6% | 
O=C(O)c1cccc2c(C(=O)c3ccccc3)cc(C(=O)c3ccc(C(Cl)(Cl)Cl)cc3)c-2c1 | -3.18% |  |  |  | -1.38% | 25.6% | 19.9% | 
